Test results as given in patent US20250040539A1, “COMPOSITION COMPRISING AN ANTIMICROBIAL AGENT AND A CARBOXAMIDE” (BASF SE, priority 2021, published 2025).

Legend:
Type in all cases: cell-based
[1] = test system: fungal mix: Aspergillus brasiliensis DSM 1988, Rhodotorula mucilaginosa DSM 13621, Yarrowia lipolytica DSM 8218; experiment: Preservative activity in a manual dishwashing composition (MDW, pH 7.1) with 1.0% 2-phenoxyethanol against fungal mix (Example 1.2); conditions: MDW + 1.0% PE, no amide (Comparative)
Description: A manual dish wash detergent (MDW) of pH 7.1 containing the following components was used:
(§1) The samples were contaminated with a fungal mix consisting of: • Aspergillus brasiliensis DSM 1988 • Rhodotorula mucilaginosa DSM 13621 • Yarrowia lipolytica DSM 8218
The samples were inoculated with the fungal mix at day 0 and 7 to obtain 1-3×10E+05 CFU/ml inoculation in the test sample consisting of the above-defined dish wash detergent MDW and stored at 25° C. for 21 days. CFU was determined before re-inoculation at day 7, and on days 14 and 21.
Any CFU value at d7, d14 or d21 obtained with a MDW sample of the invention containing 2-phenoxyethanol and amide (MDW+1.0% PE+x % of Amide) lower than the respective value of the comparative example (MDW+1.0% by weight of 2-phenoxyethanol) indicates a better performance of the inventive combination of 2-phenoxyethanol with the amide.

[2] = test system: bacterial mix: Escherichia coli DSM 1576, Alcaligenes faecalis DSM 13644, Pseudomonas aeuginosa ATCC 15442, Staphylococcus aureus ATCC 6538, Burkholderia …; experiment: Preservative activity of a basic composition (10% PG in water, pH 7) with 2-phenoxyethanol against bacterial contamination (Example 2.1); conditions: 10% PG + 0.4% PE, no amide (Comparative 2)
[3] = test system: fungal mix: Aspergillus brasiliensis DSM 1988, Rhodotorula mucilaginosa DSM 13621, Yarrowia lipolytica DSM 8218; experiment: Preservative activity in a hard surface cleaner composition (HSC, pH 7.0) with 2-phenoxyethanol against fungal mix (Example 1.5); conditions: HSC + 1.35% PE, no amide (Comparative 2)
Description: A manual hard surface cleaner (HSC) of pH 7.0 containing the following components was used:
as §1
The samples were inoculated with the fungal mix at day 0 and 7 to obtain 1-3×10E+05 CFU/ml inoculation in the test sample consisting of the above-defined hard surface cleaner HSC and stored at 25° C. for 21 days. CFU was determined before re-inoculation at day 7, and on days 14 and 21.

[4] = test system: bacterial mix: Escherichia coli DSM 1576, Alcaligenes faecalis DSM 13644, Pseudomonas aeruginosa ATCC 15442, Staphylococcus aureus ATCC 6538, Burkholderia …; experiment: Preservative activity of a basic composition (10% PG in water, pH 7) with 1,2-benzisothiazol-3(2H)-one (BIT) against bacterial contamination (Example 2.3); conditions: day 7
Description: (§2) An aqueous composition of pH 7 comprising 10% by weight of propyleneglycol (PG) as organic solvent, 0.004% by weight of 1,2-benzisothiazol-3(2H)-one (BIT) as antimicrobial and 0.04% by weight of the amide listed in the below table was tested for its preserving activity against bacterial contamination (the percentages are weight percent and relate to the total weight of the composition). For this purpose, the samples were contaminated with a bacterial mix consisting of: • Escherichia coli DSM 1576 • Alcaligenes faecalis DSM 13644 • Pseudomonas aeruginosa ATCC 15442 • Staphylococcus aureus ATCC 6538 • Burkholderia cepacia DSM 7288 • Pseudomonas putida DSM 12735
(§3) The samples were inoculated with the bacterial mix at day 0 to obtain 10E+06 to 10E+07 CFU/ml inoculation in the test sample and stored at 25° C. for 7 days.
(§4) CFU was determined at day 7.
Any CFU value at day 7 (d7) obtained with a sample according to the invention containing BIT and amide (10% PG+0.004% BIT+Amide in water) lower than the respective value of the “comparative 2” example (10% by weight of propyleneglycol+0.004% by weight of 1,2-benzisothiazol-3(2H)-one (BIT) in water) indicates a better performance.

[5] = test system: bacterial mix: Escherichia coli DSM 1576, Alcaligenes faecalis DSM 13644, Pseudomonas aeuginosa ATCC 15442, Staphylococcus aureus ATCC 6538, Burkholderia …; experiment: Preservative activity of a basic composition (10% PG in water, pH 7) with 2-phenoxyethanol against bacterial contamination (Example 2.1); conditions: 10% PG + 0.36% PE + 0.04% amide
Description: as §2, with “0.36%” for “0.004%”, “2-phenoxyethanol (PE)” for “1,2-benzisothiazol-3(2H)-one (BIT)”, “(the weight” for “(the”, “percentages” for “percentages are weight percent and”, “aeuginosa” for “aeruginosa”
The samples were inoculated with the bacterial mix at day 0, 7 and 14 to obtain 10E+06 to 10E+07 CFU/ml inoculation in the test samples (compositions listed in the below table) consisting of 10% by weight of propylene glycol in water and stored at 25° C. for 21 days.
CFU was determined before re-inoculation at days 7 and 14, and on day 21.

[6] = test system: bacterial mix: Escherichia coli DSM 1576, Alcaligenes faecalis DSM 13644, Pseudomonas aeruginosa ATCC 15442, Staphylococcus aureus ATCC 6538, Burkholderia …; experiment: Preservative activity of a basic composition (10% PG in water, pH 7) with 4,4'-dichloro-2-hydroxydiphenyl ether (diclosan) against bacterial contamination (Example 2.2); conditions: day 7
Description: as §2, with “0.015%” for “0.004%”, “4,4′-dichloro-2-hydroxydiphenyl ether (diclosan)” for “1,2-benzisothiazol-3(2H)-one (BIT)”, “0.04 or 0.1%” for “0.04%”, “amides” for “amide”, “(the weight” for “(the”, “percentages” for “percentages are weight percent and”
as §3, §4
Any CFU value at day 7 (d7) obtained with a sample according to the invention containing diclosan and amide (10% PG+0.015% diclosan+Amide in water) lower than the respective value of the “comparative 3” example (10% by weight of propyleneglycol+0.015% by weight of 4,4′-dichloro-2-hydroxydiphenyl ether (diclosan) in water) indicates a better performance.

| Compound | d7 [CFU/ml] ([1]; day 7) | d14 [CFU/ml] ([1]; day 14) | d21 [CFU/ml] ([1]; day 21) | d7 [CFU/ml] ([2]; day 7) | d14 [CFU/ml] ([2]; day 14) | d21 [CFU/ml] ([2]; day 21) | d7 [CFU/ml] ([3]; day 7) | d14 [CFU/ml] ([3]; day 14) | d21 [CFU/ml] ([3]; day 21) | d7 [CFU/ml] ([4]; 10% PG + 0.004% BIT + 0.04% amide) | d7 [CFU/ml] ([4]; 10% PG + 0.1% amide, no BIT (Comparative 1)) | d7 [CFU/ml] ([5]; day 7) | d14 [CFU/ml] ([5]; day 14) | d21 [CFU/ml] ([5]; day 21) | d7 [CFU/ml] ([6]; 10% PG + 0.015% diclosan + 0.1% amide) | d7 [CFU/ml] ([6]; 10% PG + 0.1% amide, no diclosan (Comparative 1b)) |
| --- | --- | --- | --- | --- | --- | --- | --- | --- | --- | --- | --- | --- | --- | --- | --- | --- |
| OCCOc1ccccc1 [PE, 2-phenoxyethanol, reference compound] | 38,000 CFU/ml | 27,000 CFU/ml | 3,700 CFU/ml | 65,000 CFU/ml | >100,000 CFU/ml | >100,000 CFU/ml | 37,000 CFU/ml | 36,000 CFU/ml | 3200 CFU/ml |  |  |  |  |  |  |  |
| CCCCCCCCCC(=O)N(C)C [n-Decanoyl-N,N-dimethylamide] |  |  |  |  |  |  |  |  |  | 4,000 CFU/ml | >100,000 CFU/ml | <10 CFU/ml | <10 CFU/ml | <10 CFU/ml | 43,000 CFU/ml | >100,000 CFU/ml |
